According to US7612084B2, “Amine derivatives for the treatment of asthma and COPD” (Pfizer Inc, priority 2006, dated 2009):
Counter-ions that a name gives are not always drawn.

How the values were obtained:
[1] = target: human muscarinic M3 receptor (Homo sapiens, UniProt P20309); experiment: Whole cell β-lactamase reporter assay in CHO cells expressing the hM3 receptor (antagonist activity); type: cell-based; conditions: 80 nM carbamyl choline, IC50 converted to Ki by Cheng-Prusoff
Protocol: Functional Assessment of Antagonist Activity Using a Whole Cell β-Lactamase Reporter Assay in CHO Cells Expressing the hM3 Receptor.
CHO (Chinese Hamster Ovary) cells recombinantly expressing the human muscarinic M3 receptor were transfected with the NFAT_β-Lac_Zeo plasmid. Cells were grown in DMEM with Glutamax-1, supplemented with 25 mM HEPES(Life Technologies 32430-027), containing 10% FCS (Foetal Calf Serum; Sigma F-7524), […] Sodium pyruvate (Sigma S-8636), NEAA (non-Essential Amino Acids; Invitrogen 11140-035) and […] Zeocin (Invitrogen R250-01).
Cells were harvested for assay when they reached 80-90% confluency using enzyme free cell Dissociation Solution (Life technologies 13151-014) incubated with the cells for 5 min at 37° C. in an atmosphere containing 5% CO2. Detached cells were collected in warmed growth media and centrifuged at 200 rpm for 10 min, washed in PBS (Phosphate Buffered Saline; Life Technologies 14190-094) and centrifuged again as just described. The cells were re-suspended at 2×10^5 cells/ml in growth medium (composition as described above). 20 μl of this cell suspension was added to each well of a 384 well black clear bottomed plate (Greiner Bio One 781091-PFI). The assay buffer used was PBS supplemented with 0.05% Pluronic F-127 (Sigma 9003-11-6) and 2.5% DMSO. Muscarinic M3 receptor signalling was stimulated using 80 nM carbamyl choline (Aldrich N240-9) incubated with the cells for 4 h at 37° C./5% CO2 and monitored at the end of the incubation period using a Tecan SpectraFluor+plate reader (λ−excitation 405 nm, emission 450 nm and 503 nm). Compounds under test were added to the assay at the beginning of the 4 h incubation period and compound activity measured as the concentration dependent inhibition of the carbamyl choline induced signal. Inhibition curves were plotted and IC50 values generated using a 4-parameter sigmoid fit and converted to Ki values using the Cheng-Prusoff correction and the KD value for carbamyl choline in the assay.

[2] = target: human adrenergic B2 receptor (Homo sapiens, UniProt P07550); experiment: Whole cell luciferase reporter assay in CHO cells expressing the hB2 receptor (agonist potency); type: cell-based; conditions: 4 h incubation, read-out: EC50 - beta2
Protocol: Functional Assessment of Agonist Potency and Efficacy Using a Whole Cell Luciferase Reporter Assay in CHO Cells Expressing the hB2 Receptor.
CHO (Chinese Hamster Ovary) cells recombinantly expressing the human adrenergic B2 receptor and transfected with a luciferase enzyme reporter gene were maintained in growth media composed of F12:DMEM (Sigma D6421) containing 10% Foetal Bovine Serum (FBS: Sigma F03921) 10 μg/ml puromycin (Sigma N277698), 0.5 mg/ml Geneticin G418 (Sigma G7034) and 2 mM L-glutamine (Sigma G7513). The cells were kept in sterile conditions at 37° C., in an atmosphere containing 5% CO2.
hB2 Luciferase Assay Protocol
Cells were harvested for assay when they reached 80-90% confluency using enzyme free cell Dissociation Solution (Life technologies 13151-014) incubated with the cells for 5 min at 37° C. in an atmosphere containing 5% CO2. Detached cells were collected in warmed growth media (composition described above), and re-suspended in assay media (F12:DMEM (Sigma D6421) containing 1% Foetal Bovine Serum (FBS: Sigma F03921), 10 μg/ml puromycin (Sigma N277698), 0.5 mg/ml Geneticin G418 (Sigma G7034) and 2 mM L-glutamine (Sigma G7513))to give a viable cell concentration of 1×10^6 cells/ml. 10 ul of this suspension was added to each well of a tissue culture treated low volume 384 well plate (Greiner788073) and the plate incubated in an atmosphere containing 5% CO2 at 37° C. for 2 h. Concentration ranges of test compounds were prepared in phosphate Buffered Saline containing 0.05% pluronic-F127 (Sigma P2443) and 2.5% DMSO. 2 μl of each test concentration were added to the appropriate 384 plate well and returned to the incubator for a further 4 h. At the end of the incubation period 4 μl of Steady-Glo reagent (Steady-Glo Luciferase assay system (Promega E2520) was added to each well and the plate read immediately in a Leadseeker Plate reader (Amersham Bioscience) using a 660 nm filter. Concentration effect curves were plotted and EC50 values generated using a 4-parameter sigmoid fit using an in-house data analysis programme. Isoprenaline was run in every assay as a reference standard.

Chain of human adrenergic B2 receptor (P07550 whole entry): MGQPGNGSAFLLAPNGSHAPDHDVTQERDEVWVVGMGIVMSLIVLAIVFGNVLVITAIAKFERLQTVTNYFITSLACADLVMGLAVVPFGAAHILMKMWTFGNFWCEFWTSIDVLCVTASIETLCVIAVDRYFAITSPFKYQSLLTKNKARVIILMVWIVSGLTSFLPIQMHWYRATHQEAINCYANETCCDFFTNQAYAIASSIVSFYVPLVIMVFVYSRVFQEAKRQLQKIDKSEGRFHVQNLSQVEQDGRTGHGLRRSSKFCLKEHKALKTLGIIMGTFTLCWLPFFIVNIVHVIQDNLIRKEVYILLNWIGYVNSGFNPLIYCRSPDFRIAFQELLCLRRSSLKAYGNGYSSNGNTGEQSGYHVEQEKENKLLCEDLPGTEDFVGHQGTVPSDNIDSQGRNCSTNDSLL
Chain of human muscarinic M3 receptor (P20309 whole entry): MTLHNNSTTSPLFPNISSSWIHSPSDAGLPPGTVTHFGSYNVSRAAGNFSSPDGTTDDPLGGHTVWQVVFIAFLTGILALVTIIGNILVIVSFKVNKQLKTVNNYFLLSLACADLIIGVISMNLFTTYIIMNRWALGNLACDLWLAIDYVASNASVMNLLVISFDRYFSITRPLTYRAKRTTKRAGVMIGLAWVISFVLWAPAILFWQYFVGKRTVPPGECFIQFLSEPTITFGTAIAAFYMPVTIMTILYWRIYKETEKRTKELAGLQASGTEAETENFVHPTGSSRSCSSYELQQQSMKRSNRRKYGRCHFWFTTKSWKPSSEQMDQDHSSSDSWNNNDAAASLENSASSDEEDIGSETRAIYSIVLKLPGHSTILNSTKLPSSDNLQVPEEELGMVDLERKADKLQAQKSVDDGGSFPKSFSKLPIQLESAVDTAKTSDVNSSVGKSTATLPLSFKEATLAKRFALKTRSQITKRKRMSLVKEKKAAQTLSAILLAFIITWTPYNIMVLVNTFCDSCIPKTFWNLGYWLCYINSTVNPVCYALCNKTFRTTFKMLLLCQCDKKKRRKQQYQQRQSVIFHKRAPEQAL

Row | Structure (SMILES) | Ki [1] [nM] | EC50 [2] [nM]
1 | CC(C)N(CC[C@H](c1ccccc1)c1cc(CCOc2ccc(CCNC[C@H](O)c3ccc(O)c(NS(C)(=O)=O)c3)cc2)ccc1O)C(C)C [Example 19, N-{5-[(1R)-2-({2-[4-(2-{3-[(1R)-3-(diisopropylamino)-1-phenylpropyl]-4-hydroxyphenyl}ethoxy)phenyl]ethyl}amino)-1-hydroxyethyl]-2-hydroxyphenyl}methanesulfonamide succinate salt] | 0.3 | 0.2
2 | CC(C)N(CC[C@H](c1ccccc1)c1cc(CCOc2cccc(CCNC[C@H](O)c3ccc(O)c(NS(C)(=O)=O)c3)c2)ccc1O)C(C)C [Example 10, N-{5-[(1R)-2-({2-[3-(2-{3-[(1R)-3-(diisopropylamino)-1-phenylpropyl]-4-hydroxyphenyl}ethoxy)phenyl]ethyl}amino)-1-hydroxyethyl]-2-hydroxyphenyl}methanesulfonamide] | 1.1 | 0.26
3 | CC(C)N(CC[C@H](c1ccccc1)c1cc(CCOc2ccc(CCNC[C@H](O)c3ccc(O)c(NC=O)c3)cc2)ccc1O)C(C)C [Example 13, N-{5-[(1R)-2-({2-[4-(2-{3-[(1R)-3-(diisopropylamino)-1-phenylpropyl]-4-hydroxyphenyl}ethoxy)phenyl]ethyl}amino)-1-hydroxyethyl]-2-hydroxyphenyl}formamide] | 0.38 | 0.078
4 | CC(C)N(CC[C@H](c1ccccc1)c1cc(CCOc2ccc(CCNC[C@H](O)c3ccc(O)c4[nH]c(=O)ccc34)cc2)ccc1O)C(C)C [Example 14, 5-[(1R)-2-({2-[4-(2-{3-[(1R)-3-(diisopropylamino)-1-phenylpropyl]-4-hydroxyphenyl}ethoxy)phenyl]ethyl}amino)-1-hydroxyethyl]-8-hydroxyquinolin-2(1H)-one] | 0.76 | 0.054
5 | CC(C)N(CC[C@H](c1ccccc1)c1cc(CCCOc2ccc(CCNC[C@H](O)c3ccc(O)c(NS(C)(=O)=O)c3)cc2)ccc1O)C(C)C [Example 2, N-{5-[(1R)-2-({2-[4-(3-{3-[(1R)-3-(diisopropylamino)-1-phenylpropyl]-4-hydroxyphenyl}propoxy)phenyl]ethyl}amino)-1-hydroxyethyl]-2-hydroxyphenyl}methanesulfonamide] | 1.1 | 0.32
6 | CC(C)N(CC[C@H](c1ccccc1)c1cc(CCCCOc2ccc(CCNC[C@H](O)c3cc(O)cc(O)c3)cc2)ccc1O)C(C)C [Example 9] | 1.1 | 4.8
7 | CC(C)N(CC[C@H](c1ccccc1)c1cc(OCCCCCCCNC[C@H](O)c2ccc(O)c(NS(C)(=O)=O)c2)ccc1O)C(C)C [Example 4, N-(5-{(1R)-2-[(7-{3-[(1R)-3-(diisopropylamino)-1-phenylpropyl]-4-hydroxyphenoxy}heptyl)amino]-1-hydroxyethyl}-2-hydroxyphenyl)methanesulfonamide] | 0.28 | 1.3
8 | CC(C)N(CC[C@H](c1ccccc1)c1cc(CCCCOCCCCCCNC[C@H](O)c2ccc(O)c(NS(C)(=O)=O)c2)ccc1O)C(C)C [Example 6, N-{5-[(1R)-2-{[6-(4-{3-[(1R)-3-(Diisopropylamino)-1-phenylpropyl]-4-hydroxyphenyl}butoxy)hexyl]amino}-1-hydroxyethyl]-2-hydroxyphenyl}methanesulfonamide] | 2.4 | 0.19
9 | CC(C)N(CC[C@H](c1ccccc1)c1cc(CCCCOc2ccc(CCNC[C@H](O)c3ccc(O)c(NC=O)c3)cc2)ccc1O)C(C)C [Example 7, N-{5-[(1R)-2-({2-[4-(4-{3-[(1R)-3-(diisopropylamino)-1-phenylpropyl]-4-hydroxyphenyl}butoxy)phenyl]ethyl}amino)-1-hydroxyethyl]-2-hydroxyphenyl}formamide] | 2.1 | 0.049
10 | CC(C)N(CC[C@H](c1ccccc1)c1cc(CCCCOc2ccc(CCNC[C@H](O)c3ccc(O)c(NS(C)(=O)=O)c3)cc2)ccc1O)C(C)C [Example 3, N-{5-[(1R)-2-({2-[4-(4-{3-[(1R)-3-(Diisopropylamino)-1-phenylpropyl]-4-hydroxyphenyl}butoxy)phenyl]ethyl}amino)-1-hydroxyethyl]-2-hydroxyphenyl}methanesulfonamide] | 1.4 | 0.14
11 | CC(C)N(CC[C@H](c1ccccc1)c1cc(CCCCCCCCNC[C@H](O)c2ccc(O)c(NS(C)(=O)=O)c2)ccc1O)C(C)C [Example 16, N-(5-{(1R)-2-[(8-{3-[(1R)-3-(diisopropylamino)-1-phenylpropyl]-4-hydroxyphenyl}octyl)amino]-1-hydroxyethyl}-2-hydroxyphenyl)methanesulfonamide] | 2 | 1.3
12 | CC(C)N(CC[C@H](c1ccccc1)c1cc(CCOc2ccc(CCNC[C@H](O)c3ccc(O)c(CO)c3)cc2)ccc1O)C(C)C [Example 15, 2-[(1R)-3-(diisopropylamino)-1-phenylpropyl]-4-(2-{4-[2-({(2R)-2-hydroxy-2-[4-hydroxy-3-(hydroxymethyl)phenyl]ethyl}amino)ethyl]phenoxy}ethyl)phenol] | 0.06 | 0.25
13 | CC(C)N(CC[C@H](c1ccccc1)c1cc(CCCCCCCCCCNC[C@H](O)c2ccc(O)c(NS(C)(=O)=O)c2)ccc1O)C(C)C [Example 1, N-(5-{(1R)-2-[(10-{3-[(1R)-3-(diisopropylamino)-1-phenylpropyl]-4-hydroxyphenyl}decyl)amino]-1-hydroxyethyl}-2-hydroxyphenyl)methanesulfonamide] | 3.4 | 0.88
14 | CC(C)N(CC[C@H](c1ccccc1)c1cc(CCCCOc2ccc(CCNC[C@H](O)c3ccc(O)c4[nH]c(=O)ccc34)cc2)ccc1O)C(C)C [Example 8, 5-[(1R)-2-({2-[4-(4-{3-[(1R)-3-(diisopropylamino)-1-phenylpropyl]-4-hydroxyphenyl}butoxy)phenyl]ethyl}amino)-1-hydroxyethyl]-8-hydroxyquinolin-2(1H)-one] | – | 0.035
15 | CC(C)N(CC[C@H](c1ccccc1)c1cc(CCCCOc2ccc(CCNC[C@H](O)c3ccc(O)c(CO)c3)cc2)ccc1O)C(C)C [Example 18, 2-[(1R)-3-(diisopropylamino)-1-phenylpropyl]-4-(4-{4-[2-({(2R)-2-hydroxy-2-[4-hydroxy-3-(hydroxymethyl)phenyl]ethyl}amino)ethyl]phenoxy}butyl)phenol] | – | 0.22
16 | CC(C)N(CC[C@H](c1ccccc1)c1cc(CCOc2cccc(CCNC[C@H](O)c3ccc(O)c(CO)c3)c2)ccc1O)C(C)C [Example 11, 2-[(1R)-3-(diisopropylamino)-1-phenylpropyl]-4-(2-{3-[2-({(2R)-2-hydroxy-2-[4-hydroxy-3-(hydroxymethyl)phenyl]ethyl}amino)ethyl]phenoxy}ethyl)phenol] | 1.5 | 2.2
17 | CC(C)N(CC[C@H](c1ccccc1)c1cc(CCCCCOc2ccc(CCNC[C@H](O)c3ccc(O)c(NS(C)(=O)=O)c3)cc2)ccc1O)C(C)C [Example 17, N-(5-{(1R)-2-[(2-{4-[(5-{3-[(1R)-3-(diisopropylamino)-1-phenylpropyl]-4-hydroxyphenyl}pentyl)oxy]phenyl}ethyl)amino]-1-hydroxyethyl}-2-hydroxyphenyl)methanesulfonamide] | 3 | 0.57
